The text below walks through data of US5942494A, “Stimulation of gene expression and synthesis of heat shock protein 72/73 (HSP 70)” (The Trustees of Columbia University in the City of New York, priority 1996, dated 1999).

The target in one experiment is cathepsin B (Homo sapiens, UniProt P07858). The note with it: Rock, et al., 1994; cited from earlier work.
In the next experiment the test system is Hsp104. The experiment in a line: Immunoprecipitation of Hsp104 from radiolabeled HepG2 cells. It is filed as cell-based, human. The note with it: HepG2, ALLN 4 hours. The procedure:
FIGS. 7A-7B: Effects of ALLN on the biosynthesis of other members of Hsp family and related proteins. HepG2 cells were pre-treated and radiolabeled with or without ALLN for 4 hours as described in FIG. 1. Cell lysates were used for SDS-PAGE (A), or for immunoprecipitation with anti-Hsp25, -Hsp27, -Hsp60, -Hsp70, -Hsp86, -Hsp90, -Hsp104, -Bip, or -albumin antibodies respectively (1 μg/ml) (B). Because the anti-Hsp25, -Hsp27, -Hsp60 and Hsp90 antibodies are from a rat source, rabbit anti-rat IgG antibody was added after the first incubation, and the incubation was extended for another 1 hour at 4° C. before collection with protein A-Sepharose.Immunoprecipitates were loaded for SDS-PAGE and aliquoted for scintillation counting and plotting. Each value was presented as mean ±S.D. from three individual culture dishes.
HepG2 cells were preincubated for 4 hours in serum-free MEM and then radiolabeled with ^3 H-Leucine (150 μCi/ml) in a serum-free, leucine-free medium. […] Cell lysates containing equal amounts of trichloroacetic acid (TCA)-insoluble radioactivity were used for immunoprecipitations by incubating with individual monoclonal antibody (1 μg/ml) for 2.5 hours at 4° C. […]

In another experiment the test system is proteasomes. The following applies: Rock, et al., 1994; cited from earlier work.

SMILES strings stand for the structures. Square brackets hold non-standard residues; d marks the D form. Peptide text beside a SMILES is read from it. Nle = CCCC[C@H](N)C(=O)O

In the case of `CCCC[C@@H](C=O)NC(=O)[C@H](CC(C)C)NC(=O)[C@H](CC(C)C)NC(C)=O` [ALLN, N-acetyl-leucyl-leucyl-norleucinal] (Ac-Leu-Leu-[Nle]-aldehyde), the “Activity against cathepsin B” value on cathepsin B was “significant activities”. For the same molecule, the “Effect on Hsp104” value with Hsp104 is recorded as “no effects”. The Inhibition of proteasomes result with proteasomes is reported as “potent inhibitors”.
